Results reported in PubChem BioAssay (NCI).
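Where inhibition never reached the appropriate level, the endpoint shown equals the highest concentration tested. Otherwise, values were interpolated linearly from a five-concentration, 48-hour dose response in 96-well plates. The concentration for 50% growth inhibition is given as GI50. Definition used: TGI = concentration required for complete inhibition of growth.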

Experiments:
Experiment in all cases: growth of human tumour cells (NCI), 48 h
U251 CNS = system: U251 CNS
786-0 renal = system: 786-0 renal
SW-620 colon = system: SW-620 colon
SNB-75 CNS = system: SNB-75 CNS
DU-145 prostate = system: DU-145 prostate
HT29 colon = system: HT29 colon
SF-295 CNS = system: SF-295 CNS
SNB-19 CNS = system: SNB-19 CNS
IGROV1 ovarian = system: IGROV1 ovarian
M14 melanoma = system: M14 melanoma

Structure (SMILES)	GI50 (U251 CNS)	TGI (U251 CNS)	GI50 (786-0 renal)	TGI (786-0 renal)	GI50 (SW-620 colon)	TGI (SW-620 colon)	GI50 (SNB-75 CNS)	TGI (SNB-75 CNS)	GI50 (DU-145 prostate)	TGI (DU-145 prostate)	GI50 (HT29 colon)	TGI (HT29 colon)	GI50 (SF-295 CNS)	TGI (SF-295 CNS)	GI50 (SNB-19 CNS)	TGI (SNB-19 CNS)	GI50 (IGROV1 ovarian)	TGI (IGROV1 ovarian)	GI50 (M14 melanoma)	TGI (M14 melanoma)
CCOC(=O)/C(=C/N1CCN(C(=O)c2ccco2)C1=S)C(=O)c1ccccc1	11.5 µM	> 50 µM	12.9 µM	45.2 µM	7.93 µM	24 µM	46 µM	> 50 µM	8.04 µM	24.1 µM	19.2 µM	> 50 µM	16.4 µM	> 50 µM	35.6 µM	> 50 µM	> 50 µM	> 50 µM	8.86 µM	21 µM
CNNC1=NS(=O)(=O)c2cc(C#N)c(Cl)cc2S1	–	> 10 µM	–	> 10 µM	–	> 10 µM	–	> 10 µM	–	> 10 µM	–	> 10 µM	–	> 10 µM	–	> 10 µM	–	> 10 µM	–	> 10 µM
CCOC(=O)C1Cc2c(cc3c4c(cccc24)N(C(C)=O)C3)N(C)C1 (centres undefined)	–	> 100 µM	–	> 100 µM	–	> 100 µM	–	> 100 µM	–	> 100 µM	–	> 100 µM	–	> 100 µM	–	> 100 µM	–	> 100 µM	–	> 100 µM
CC(=O)O[C@H]1C(=O)[C@@]2(C)C(C(OC(=O)c3ccccc3)[C@]3(O)C[C@H](OC(=O)C(OC(=O)CCCC(=O)NCCCN(C)C)C(NC(=O)c4ccccc4)c4ccccc4)C(C)=C1C3(C)C)C1(OC(C)=O)COC1C[C@@H]2O (some centres undefined)	–	20.8 µM	–	11 µM	–	22.4 µM	–	0.021 µM	–	0.0666 µM	–	2.22 µM	–	1.28 µM	–	> 100 µM	–	59 µM	–	25 µM
COc1ccc(C2=N[C@@H](Cc3ccccc3)C(=O)Nc3ccsc32)cc1	4.51 µM	20.5 µM	10.7 µM	36.6 µM	4.38 µM	27.9 µM	2.05 µM	7.08 µM	4.65 µM	21.9 µM	4.04 µM	13.4 µM	–	–	9.93 µM	58.3 µM	12.8 µM	41 µM	3.66 µM	12.6 µM
CC(C)(C)c1ccc(S(=O)(=O)Oc2ccc3c4c(c(=O)oc3c2)CCCCC4)cc1	12.5 µM	54.4 µM	25.3 µM	> 100 µM	85.6 µM	> 100 µM	13.3 µM	36.8 µM	37.9 µM	> 100 µM	7.95 µM	> 100 µM	20.9 µM	> 100 µM	16.4 µM	52.1 µM	14.9 µM	48.5 µM	20.4 µM	> 100 µM
C=C=C(CC1CCCCC1=O)S(=O)(=O)c1ccccc1 (centres undefined)	–	> 10 µM	–	> 10 µM	–	> 9.53 µM	–	> 10 µM	–	> 10 µM	–	> 10 µM	–	> 10 µM	–	> 10 µM	–	> 10 µM	–	> 10 µM
COc1cc(/C=C\c2cc(OC)c(OC)c(OC)c2)cc(N/C=C\C(=O)c2ccc(OC(F)(F)F)cc2)c1OC	3.46 µM	> 100 µM	4.34 µM	> 100 µM	4.09 µM	> 100 µM	2.65 µM	24 µM	4.11 µM	> 100 µM	3.07 µM	16.5 µM	4.12 µM	30.9 µM	4.97 µM	> 100 µM	7.06 µM	> 100 µM	3.46 µM	> 100 µM
CS(=O)(=O)Nc1cncc(-c2ccc3ncnc(Nc4ccc(F)c(Cl)c4)c3c2)c1	3.03 µM	15.2 µM	2.7 µM	14.8 µM	3.15 µM	11.8 µM	0.434 µM	6.92 µM	2.25 µM	15.2 µM	2.43 µM	11.4 µM	2.79 µM	13 µM	2.09 µM	18.1 µM	0.34 µM	1.91 µM	3.33 µM	15.1 µM
Fc1cccc(COc2ccc(Nc3ncnc4sc(-c5cccs5)cc34)cc2Cl)c1	5.75 µM	15.9 µM	8.34 µM	> 18.7 µM	> 13.3 µM	> 25 µM	4.17 µM	10 µM	11.1 µM	> 17.7 µM	6.93 µM	17.9 µM	9.81 µM	> 25 µM	5.33 µM	12 µM	8.73 µM	> 25 µM	7.66 µM	> 25 µM
CC1=CC(=O)C2=C(C)CCC3C(C)C(=O)OC3C12 (centres undefined)	–	> 100 µM	–	> 100 µM	–	> 100 µM	–	–	–	> 100 µM	–	> 100 µM	–	> 100 µM	–	> 100 µM	–	> 100 µM	–	> 100 µM
Cc1cc(O)c(=O)cc2c1C[C@H]1CC(C)(C)/C=C/C[C@]3(C)Oc4cc(=O)c(O)cc(C)c4C[C@H]3C[C@H](O)[C@@]1(C)O2	–	–	0.0327 µM	15.4 µM	< 0.01 µM	> 100 µM	0.0262 µM	42 µM	< 0.01 µM	> 75.9 µM	< 0.01 µM	> 100 µM	–	–	< 0.01 µM	> 67.3 µM	0.025 µM	7.46 µM	0.0266 µM	19.7 µM
Cc1nc2ccc(Nc3nc(Cl)nc(N4CCOCC4)n3)cc2n1Cc1ccccc1	–	–	11.7 µM	> 100 µM	3.1 µM	> 100 µM	4.47 µM	29.6 µM	28.1 µM	> 100 µM	–	–	11.9 µM	82 µM	18.2 µM	> 100 µM	2.58 µM	6.41 µM	–	–
COc1cc(Nc2nc3cc(N)cc(N)c3nc2-c2ccccc2)cc(OC)c1OC	24.6 µM	> 100 µM	14.6 µM	40.3 µM	24.1 µM	> 100 µM	–	–	21.9 µM	74 µM	–	35 µM	16 µM	42.8 µM	33.1 µM	> 100 µM	15.7 µM	58.2 µM	19.6 µM	44.9 µM
